In patent US20210283092A1, “METHODS AND USES OF […] DERIVATIVES” (priority 2018, published 2021):

Legend:
[1] = system: human neutrophils stimulated with MSU; test: MSU-induced calcium mobilization in human neutrophils (Fura-2); type: cell-based; settings: for effect on MSU-induced calcium levels: 10 μM 28a, 39, 47a, 89, 1 μM 14, 3 μM 43, TPO at indicated concentrations; for lowest concentration significantly inhibiting the MSU-induced increase in intracellular calcium: 1 mg/ml MSU, 30 min pre-incubation; for type of dose response, cytoplasmic calcium: 0.01 to 10 μM
Experimental: Neutrophils were isolated from venous blood of healthy adult volunteers. Briefly, venous blood was obtained in tubes containing isocitrate, red blood cells were sedimented in 2% dextran and neutrophils were aseptically purified by centrifugation on Ficoll-Paque cushions. Contaminating erythrocytes were removed by hypotonic lysis and neutrophils were resuspended in Mg^2+-free HBSS containing 1.6 mM of CaCl2.
(FIG. 7D), D1=(28a) (FIGS. 7E and 7J), D2=(39) (FIG. 7F), D3=(47a) (FIGS. 7G and 7J), D4=(89) (FIG. 7H) prior to the addition of MSU (1 mg/ml).
The intracellular calcium concentration was determined with a spectrofluorometer and is expressed as the area under the curve (from the MSU injection up to 100 sec).
Changes in cytoplasmic calcium were then measured after the addition of MSU or HBSS (the negative control) using two excitation wavelengths at 340 and 380 nm and an emission wavelength of 510 nm. The free internal calcium concentration was estimated from the ratio of the fluorescence values obtained at 340 and 380 nm. The results are calculated as the area under the curve of the intracellular calcium concentration as a function of time (0-100 sec relative to stimulus addition).
Since one of the earliest molecular events in neutrophils that is initiated by MSU is the mobilization of intracellular calcium stores, the effect of (91) (CCl), (43) and (47a) was assessed on this early signalling event. Briefly, and as described in further detail above, human neutrophils were incubated with the fluorescent calcium indicator Fura-2 prior to incubation with a range of concentrations of (91) (CCl), (43) or (47a) and stimulated with MSU. Fura-2 monitors the increase in cytoplasmic calcium caused by its release from intracellular stores.

[2] = system: human neutrophils stimulated with MSU; test: CXCL8/IL-8 release by human neutrophils (ELISA); type: cell-based; settings: for lowest concentration giving significant decrease in MSU-induced release of IL-8: 1 mg/ml MSU, 3 h
Experimental: (§1) Extracellular CXCL8/IL-8 or IL-1β were quantified by ELISA (Invitrogen). All samples were measured in duplicate.
In addition, since IL-1 induces the expression of adhesion molecules on endothelial cells as well as the synthesis of pro-inflammatory cytokines, which together promote a massive recruitment of neutrophils, the ability of CCl (91) and CH-35 (43) to dampen the production of IL-1 was also assessed.

[3] = system: human neutrophils stimulated with MSU; test: IL-1 release by TNF-α primed human neutrophils (ELISA); type: cell-based; settings: 1 mg/ml MSU, 3 h
Experimental: as §1
The production and secretion of mature IL-1 requires two stimuli. Human neutrophils were, therefore, primed with TNF-α prior to stimulation with MSU. […] (FIG. 8H-J).

[4] = system: human neutrophils stimulated with MSU; test: Superoxide production by human neutrophils (cytochrome C reduction); type: cell-based; settings: for lowest concentration inhibiting MSU-induced superoxide production: 1 mg/ml MSU
Experimental: The results are expressed as a ratio of the superoxide produced by the MSU control.
Superoxide production was measured using the reduction of cytochrome C assay. The difference between the optical density readings at 550 nm and 540 nm read within the first 10 minutes was multiplied by the extinction coefficient of cytochrome C to obtain the number of nmol O2 produced by 1×10^6 cells. The results are expressed as nmol O2/1×10^6 cells/ml.
An additional neutrophil effector function that is calcium-dependent, known to be activated by MSU and that can cause damage to the inflamed joint, is the production of ROS.

[5] = Plasma concentration and half-life in mice after subcutaneous injection
Experimental: The concentration of the compound in the plasma (FIGS. 10A and B) was determined by mass spectrometry. The concentration of (91) (CCl) or CH-35 (43) is expressed as the means of the amount of (91) (CCl) or CH-35 (43) measured in the plasma (ng/ml) of 5 mice harvested at the same time point.

[6] = Concentration in circulating leukocytes of mice after subcutaneous injection
Experimental: Blood was harvested by cardiac puncture and centrifuged to obtain circulating leukocytes. The concentration of the compound in the leukocytes (FIGS. 11A and B) was determined by mass spectrometry. The concentration of (91) (CCl) or CH-35 (43) is expressed as the means of the amount of (91) (CCl) or CH-35 (43) measured in circulating leukocytes (ng/ml) of 5 mice harvested at the same time point.

[7] = system: MSU-induced leukocyte recruitment to the dorsal air-pouch; test: Air-pouch model, compound given 1.5 hours after MSU; type: in vivo, mice; settings: for lowest dose significantly dampening MSU-induced leukocyte recruitment: subcutaneous 1.5 hours after MSU
Experimental: (§2) An air-pouch was generated on the dorsum of mice over a period of seven days by injecting air subcutaneously. […] Seven hours after the administration of MSU, the exudate in the air pouches was harvested by two flushes with 2 ml and one with 1 ml of PBS+0.5 M EDTA and the number of recruited leukocytes determined by flow cytometry. Leukocytes were stained with an anti-CD45 and anti-Ly6 G antibody.

[8] = system: human neutrophils stimulated with fMLP; test: fMLP-induced increase in cytoplasmic calcium in human neutrophils; type: cell-based; settings: 10 μM compound, 10^−7 M fMLP
Experimental: The intracellular calcium concentration was determined with a spectrofluorometer and is expressed as the area under the curve.
To assess the specificity of CCl (91) towards neutrophil activation by MSU, it was determined whether CCl (91) was able to inhibit neutrophil responses towards an unrelated stimulus. A bacterial stimulus was chosen because neutrophil activation in response to this stimulus affects the survival of the host. Briefly, human neutrophils were incubated with the 10 μM CCl (91) prior to the activation with the bacterial peptide fMLF. […] In the presence of CCl (91), however, the cytoplasmic calcium response was unaffected.

[9] = system: MSU-induced leukocyte recruitment to the dorsal air-pouch; test: Air-pouch model, compound given 5 min prior to MSU; type: in vivo, CD-1 mice; settings: mouse, in vivo
Experimental: as §2

[10] = Acute toxicity study in rats; type: in vivo
[11] = system: atherosclerosis in LDLR KO mice; test: Mouse model of atherosclerosis, high-fat diet; type: in vivo
Experimental: LDLR KO mice were randomly divided into 4 groups and either fed a control (CD) diet (group 1 & 2) or high-fat (group 3 & 4) diet. The high-fat (HF) diet contained 0.2% total cholesterol, 21% total fat by weight (42% kcal from fat), >60% of total fatty acids) and was high in sucrose (34% by weight). The animals and their feed were weighed every week.
Mice in group 2 & 4 were administered a dose of 0.5 μmol/kg CCl subcutaneously (s.c), 3 times a week for 8 weeks.
Blood was drawn from mice after the 8-week diet. Serum was prepared from the drawn blood and frozen until analysis. Serum triglycerides and cholesterol were measured in serum of mice by our Multidisciplinary and Microbiology Laboratory Service.
The aortic lesion ‘en face’ assay and Sudan IV staining was performed on aortas harvested from all mice. The percent lipid stained area in the aortic branch and the descending aorta was compared between mice using the ‘region of interest’ tool in ImageJ.
Blood was drawn from mice after the 8-week diet. Serum was prepared from the drawn blood and frozen until analysis. The levels of cytokines in the serum were measured by Luminex assay. The cytokines assayed were Eotaxin (CCL11), CCL21, G-CSF (CSF-3), RANKL, VEGF-A, IL-1 beta, IL-6 & MCP-1 (CCL2). These cytokines were chosen based on a cytokine signature that was reported to reflect the development of atherosclerosis in ApoE KO mice. The LDLR KO model was used since the inflammatory aspect of atherosclerosis is better represented in this model.

[12] = 0.5 μmol/kg s.c. 3 times a week, 8 weeks, HF diet
[13] = en face assay, Sudan IV, HF+CCl

With `COc1cc2c(c(OCc3ccccc3Cl)c1OC)-c1ccc(OC)c(=O)cc1[C@@H](NC(C)=O)CC2` [(14), N-[(7S)-2,3,10-trimethoxy-9-oxo-1-((phenyl(2-chloro))methoxy)-5,6,7,9-tetrahydrobenzo[α]heptalen-7-yl] acetamide] the “effect on MSU-induced calcium levels” value [1] was “neutrophil-inhibitory effects”.
For `COc1cc2c(c(OC)c1OC)-c1ccc(SC)c(=O)cc1[C@@H](NC(C)=O)CC2` [(39), N-[(7S)-1,2,3-trimethoxy-10-methylsulfanylo-9-oxo-5,6,7,9-tetrahydrobenzo [α]heptalen-7-yl]acetamide], the “effect on MSU-induced calcium levels” value [1] was “neutrophil-inhibitory effects”.
With `CCCOc1cc2c(c(OC)c1OC)-c1ccc(SC)c(=O)cc1[C@@H](NC(C)=O)CC2` [(43), N-[(7S)-3-propoxy-1,2-dimethoxy-10-methylsulfanyl-9-oxo-5,6,7,9-tetrahydrobenzo [α]heptalen-7-yl]acetamide] the “effect on MSU-induced calcium levels” value [1] was “neutrophil-inhibitory effects”, the “lowest concentration significantly inhibiting the MSU-induced increase in intracellular calcium” value [1] was 0.1 µM and the “type of dose response, cytoplasmic calcium” value [1] was “classical monotonic dose response”. The “lowest concentration giving significant decrease in MSU-induced release of IL-8” value [2] was 0.1 µM, the “concentration at which MSU-induced IL-1 production is diminished (threshold)” value [3] was 1 µM and the “lowest concentration inhibiting MSU-induced superoxide production” value [4] was 0.1 µM. For the same molecule, the “time after injection at which plasma level dropped to undetectable” value ([5]; 5 μmol/kg subcutaneous, mice) was “about 50 minutes”, the “time of peak plasma concentration” value ([5]; 5 μmol/kg subcutaneous, mice) was 15 min and the “time of peak concentration in circulating leukocytes” value ([6]; 5 μmol/kg subcutaneous, mice) was 15 min. For the same molecule, the “lowest dose significantly dampening MSU-induced leukocyte recruitment” value [7] was 2.5 µmol/kg.
For `COC(=O)N[C@H]1CCc2cc(O)c(OC)c(OC)c2-c2ccc(SC)c(=O)cc21` [(89)], the “effect on MSU-induced calcium levels” value [1] was “exception”.
In the case of `CCOc1cc2c(c(OC)c1OC)-c1ccc(SC)c(=O)cc1[C@@H](NC(=O)OC)CC2` [(91)], the “effect on MSU-induced increase in cytoplasmic calcium at 10 μM” value ([1]; 10 μM) is reported as “does not have a significant effect”, the “lowest concentration significantly inhibiting the MSU-induced increase in intracellular calcium” value [1] is reported as 0.1 µM and the “type of dose response, cytoplasmic calcium” value [1] is reported as “non-monotonic dose response”. The “fold lower concentration than colchicine for inhibiting calcium mobilization” value ([1]; versus colchicine) was “about 100 fold”, the “cytoplasmic calcium response to fMLF in presence of compound” value [8] was “unaffected” and the “lowest concentration giving significant decrease in MSU-induced release of IL-8” value [2] was 0.1 µM. The “fold lower concentration than colchicine for inhibiting release of IL-8” value ([2]; versus colchicine) was “about 10 fold”, the “concentration at which MSU-induced IL-1 production is diminished (threshold)” value [3] was 0.1 µM and the “lowest concentration inhibiting MSU-induced superoxide production” value [4] was 0.1 µM. For the same molecule, the “fold lower concentration than colchicine for inhibiting superoxide production” value ([4]; versus colchicine) was “about 10 fold”, the “persistence in the plasma” value ([5]; 5 μmol/kg subcutaneous, mice) was “at least 2 hours” and the “fraction of peak plasma concentration by 60 minutes” value ([5]; mouse, in vivo, sc) was “less than ¼”. The peak plasma concentration ([5]; mouse, in vivo, sc) was 80 ng/mL, the “time of peak plasma concentration” value ([5]; mouse, in vivo, sc) was 15 min and the half-life ([5]; mouse, in vivo, sc, 5 umol/kg) was 13.3 min. The “time of peak concentration in circulating leukocytes” value ([6]; mouse, in vivo, sc) was 15 min, the “fold lower dose than colchicine inhibiting leukocyte recruitment” value [9] was roughly 10 fold and the “dose inhibiting MSU-induced leukocyte recruitment” value ([9]; sc) was 0.5 µmol/kg. The “fold lower dose than effective dose of colchicine inhibiting leukocyte recruitment” value ([7]; mouse, in vivo) was “about 10 fold”, the “lowest dose significantly dampening MSU-induced leukocyte recruitment” value [7] was 0.5 µmol/kg and the “toxicity compared with colchicine” value ([10]; acute toxicity study in rats) was “less toxic than colchicine”. For the same molecule, the “maximal tolerable dose relative to colchicine” value ([10]; rats) was 3 fold, the behaviour and tolerability ([11]; 0.5 μmol/kg s.c. 3 times a week, 8 weeks) was “did not show any signs of suffering” and the “serum cholesterol versus HF diet alone” value [11, 12] was “lower”. The “serum triglycerides versus HF diet alone” value [11, 12] was “lower”, the “effect on serum cytokine levels” value ([11]; Luminex, HF diet 8 weeks) was “no significant effect” and the “percent of total area of the aortic arch covered by lesions versus HF diet” value [11, 13] was “smaller percent”. For the same molecule, the “percent of total area of the descending aorta covered by lesions versus HF diet” value [11, 13] was “smaller percent” and the “percent of total area of the descending aorta covered by lesions” value ([11]; majority of mice in the HF+CCl group) was “less than 1%”.
In the case of `COC(=O)N(C)[C@H]1CCc2cc(OC)c(OC)c(OC)c2-c2ccc(SC)c(=O)cc21` [TPO, reference compound], the “effect on MSU-induced calcium levels” value [1] is reported as “inhibition at higher concentrations”.
